Source: patent publication EP0181129B1, “N6-substituted deoxyribose analogs of adenosines” (WARNER-LAMBERT COMPANY, priority 1984, dated 1986)

Each compound was assayed against T1, adenosine A1 receptor (Rattus norvegicus, UniProt P25099) (assay: Adenosine Receptor Binding - A1 Receptor Affinity (RBA1), [3H]-CHA displacement). Conditions: 1.0 nM [3H]-CHA, rat whole brain membranes, one hour at 25°C; read-out: Receptor Binding RBA—1.
T1 construct: brain minus cerebellum and brainstem from male Long Evans rats (150-200 g) was homogenized; from tissue; host or cells: rat whole brain minus cerebellum and brainstem, membrane homogenate
T1 sequence (P25099 1-326): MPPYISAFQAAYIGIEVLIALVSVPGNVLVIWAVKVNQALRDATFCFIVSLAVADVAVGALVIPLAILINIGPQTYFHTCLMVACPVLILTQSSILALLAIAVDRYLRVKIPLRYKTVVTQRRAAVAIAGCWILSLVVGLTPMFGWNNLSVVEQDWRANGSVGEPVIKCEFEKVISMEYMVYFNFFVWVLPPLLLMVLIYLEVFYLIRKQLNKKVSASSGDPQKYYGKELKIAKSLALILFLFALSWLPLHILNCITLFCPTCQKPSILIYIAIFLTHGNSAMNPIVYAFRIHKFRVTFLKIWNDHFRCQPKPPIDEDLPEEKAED
Experimental: While brain minus cerebellum and brainstem from male Long Evans rats (150-200 g) was homogenized in 30 volumes of ice-cold 0.05 M Tris-CHI buffer pH 7.7 using a Brinkman Polytron PT-10, (setting number 6 for 20 seconds) and centrifuged for ten minutes at 20,000 x g (Sorvall RC-2), 4°C. The supernatant was discarded, and the pellet was resuspended and centrifuged as before. The pellet was resuspended in 20 ml Tris-HCI buffer containing two International Units/ml of adenosine deaminase (Sigma type III from calf intestinal mucosa), incubated at 37°C for 30 minutes, then subsequently at 0°C for ten minutes. The homogenate was again centrifuged, and the final pellet was resuspended in ice-cold 0.05 M Tris-HCI buffer pH 7.7 to a concentration of 20 mg/ml original wet tissue weight and used immediately.
Tissue homogenate (10 mg/ml) was incubated in 0.05 M Tris-HCI buffer pH 7.7 containing 1.0 nM (^3H]-N^e-cyclohexyladenosine ([^3H]-CHA) with or without tests agents in triplicate for one hour at 25°C. Incubation volume was 2 ml. Unbound [^3H]-CHA was separated by rapid filtration under reduced pressure through Whatman glass fiber (GF/B) filters. The filters were rinsed three times with 5 ml of ice cold 0.05 M Tris-HCI buffer pH 7.7. The radio-labeled ligand retained on the filter was measured by liquid scintillation spectrophotometry after shaking the filters for one hour or longer on a mechanical shaker in 10 ml of Beckman Ready-Solv HP scintillation cocktail.
Nonspecific binding was defined as the binding which occurred in the presence of 1 mM theophylline. […] The Scatchard plot was calculated by linear regression of the line obtained by plotting the amount of radioligand bound (pmoles/gram of tissue) [formula] Since the amount of radioligand bound was a small fraction of the total amount added, free radioligand was defined as the concentration (nM) of radioligand added to the incubation mixture. The Hill coefficient was calculated by linear regression of the line obtained by plotting the log of the bound radioligand vs the log of the [formula] The maximal number of binding sites (Bmax) was calculated from the Scatchard plot.

| SMILES | IC50 |
| --- | --- |
| C[C@@H](Cc1ccccc1)Nc1ncnc2c1ncn2[C@@H]1O[C@H](CCl)[C@@H](O)[C@H]1O [Example 16, (S)-N^6-[Phenylisopropyl]-5'-deoxy-5'-chloroadenosine] | 35 nM |
| O[C@@H]1[C@H](O)[C@@H](CCl)O[C@H]1n1cnc2c(NC3CCCCC3)ncnc21 [Example 17, N^6-[Cyclohexyl]-5' -deoxy-5' -chloro-adenosine] | 2 nM |
| O[C@@H]1[C@H](O)[C@@H](CCl)O[C@H]1n1cnc2c(NC3CCCC3)ncnc21 [Example 18, N^6-[Cyclopentyl]-5'-deoxy-5'-chloroadenosine] | 1.2 nM |
| CC(=O)O[C@@H]1[C@H](OC(C)=O)[C@@H](C)O[C@H]1n1cnc2c(NCc3cccc4ccccc34)ncnc21 [Example 21, N^6-a-Naphthylmethyl-2',3'-di-O-acetyl-5'-deoxyadenosine] | 2520 nM |
| CC(=O)O[C@@H]1[C@H](OC(C)=O)[C@@H](C)O[C@H]1n1cnc2c(NC3CCCc4ccccc43)ncnc21 (stereo partly shown) [Example 22, N^6-1-Tetralinyl-2' ,3'-di-O-acetyl-5'-deoxyadenosine] | 607 nM |

Same assay, conditions: Receptor Binding RBA—1, 1.0 nM [3H]-CHA, rat whole brain membranes, one hour at 25°C

| SMILES | IC50 |
| --- | --- |
| CSC[C@H]1O[C@@H](n2cnc3c(N[C@H](C)Cc4ccccc4)ncnc32)[C@H](O)[C@@H]1O [Example 7, (R)-N^6[Phenylisopropyl]-5'-deoxy-5'-thiomethyladenosine] | 51 nM |
| CSC[C@H]1O[C@@H](n2cnc3c(N[C@@H](C)Cc4ccccc4)ncnc32)[C@H](O)[C@@H]1O [Example 8, (S)-N^6-[Phenylisopropyl]-5'-deoxy-5'-thiomethyladenosine] | 700 nM |
| CSC[C@H]1O[C@@H](n2cnc3c(NC4CCCCC4)ncnc32)[C@H](O)[C@@H]1O [Example 9, N^6-[Cyclohexyl]-5'-deoxy-5'-thiomethyladenosine] | 9 nM |
| CSC[C@H]1O[C@@H](n2cnc3c(NCC(c4ccccc4)c4ccccc4)ncnc32)[C@H](O)[C@@H]1O [Example 11, N^6-[2,2-Diphenyl]-5'-deoxy-5'-thiomethyladenosine] | 660 nM |
| CSC[C@H]1O[C@@H](n2cnc3c(NC4CCc5ccccc54)ncnc32)[C@H](O)[C@@H]1O (stereo partly shown) [Example 12, N^6-[1-Indanyl]-5'-deoxy-5'-thiomethyladenosine] | 1490 nM |

What follows are compounds tested against T2, adenosine A2 receptor (Rattus norvegicus, UniProt P30543) (assay: Adenosine Receptor Binding - A2 Receptor Affinity (RBA2), [3H]NECA displacement). Conditions: 4 nM [3H]NECA with 50 nM N6-cyclopentyladenosine, rat striatal membranes, 60 minutes at 25°C; read-out: Receptor Binding RBA—2.
T2 construct: Brains were thawed and then kept on ice while the striata were dissected out; tissue Pel-Freez (Rogers, Arkansas); host or cells: rat striatum, membranes
T2 sequence (P30543 whole entry): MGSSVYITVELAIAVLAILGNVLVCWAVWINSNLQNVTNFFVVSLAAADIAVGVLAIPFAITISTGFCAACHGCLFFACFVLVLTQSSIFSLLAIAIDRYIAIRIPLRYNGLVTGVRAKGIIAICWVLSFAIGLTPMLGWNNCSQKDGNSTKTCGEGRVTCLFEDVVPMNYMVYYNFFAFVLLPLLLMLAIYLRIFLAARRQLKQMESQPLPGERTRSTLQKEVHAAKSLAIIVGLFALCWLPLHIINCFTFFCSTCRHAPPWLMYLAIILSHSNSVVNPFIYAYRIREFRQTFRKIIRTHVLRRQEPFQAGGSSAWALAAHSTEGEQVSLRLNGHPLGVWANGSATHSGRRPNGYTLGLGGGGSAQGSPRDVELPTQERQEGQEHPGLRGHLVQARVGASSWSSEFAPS
Experimental: Brains from 200-500 g mixed sex Sprague-Dawley rats were purchased from Pel-Freez (Rogers, Arkansas). Fresh brains from male Long-Evans hooded rats (Blue Spruce Farms, Altamont, NY) gave essentially indentical results. Brains were thawed and then kept on ice while the striata were dissected out. Striata were disrupted in 10 vol of ice-cold 50 mM Tris.HCI (pH 7.7 at 25°C, pH 8.26 at 5°C) (Tris) for 30 seconds in a Polytron PT―10 (Brinkmann) at setting 5. The suspension was centrifuged at 50,000 xg for ten minutes, the supernatant discarded, the pellet resuspended in 10 vol ice-cold Tris as above, recentrifuged, resuspended at 1 g/5 ml, and stored in plastic vials at -70°C (stable for at least six months). When needed, tissue was thawed at room temperature, disrupted in a Polytron, and kept on ice until used.
All incubations were for 60 minutes at 25°C in 12x75 mm glass tubes containing 1 ml Tris with 5 mg original tissue weight of rat weight of rat striatal membranes, 4 nM [^3H]-N-ethyl adenosine-5'-carboxamide ([^3H]NECA), 50 nM N^6-cyclopentyladenosine (to eliminate A1 receptor binding), 10 mM MgCl2, 0.1 units/ml, of adenosine deaminase and 1% dimethylsulfoxide. N^6-Cyclopentyladenosine was dissolved at 10 mM in 0.02 N HCI and diluted in Tris. Stock solutions and dilutions of N^6-cyclopentyladenosine could be stored at -20°C for several months. Test compounds were dissolved at 10 mM in dimethylsulfoxide or the same day as the experiment, and diluted in dimethylsulfoxide to 100x the final incubation concentration. Control incubations received an equal volume (10 µl) of dimethylsulfoxide; the resulting concentration of dimethylsulfoxide had no effect on binding. [^3H]NECA was diluted to 40 nM in Tris. The membrane suspension (5 mg/0.79 ml) contained sufficient MgCl2 and adenosine deaminase to give 10 mM and 0.1 units/ml, respectively, final concentration in the incubation. […] After all additions, the rack of tubes was vortexed, and the tubes were then incubated for 60 min at 25°C in a shaking water bath. The rack of tubes was vortexed an additonal time halfway through the incubation.
Incubations were terminated by filtration through 2.4 cm GF/B filters under reduced pressure. Each tube was filtered as follows: the contents of the tube were poured onto the filter, 4 ml of ice-cold Tris were added to the tube and the contents poured onto the filter, and the filter was washed twice with 4 ml of ice-cold Tris. The filtration was complete in about twelve seconds. Filters were put in scintillation vials, 8 ml of Formula 947 scintillation fluid added, and the vials left overnight, shaken, and counted in a liquid scintillation counter at 40% efficiency.
Nonspecific binding was defined as binding in the presence of […] N^6-cyclopentyladenosine, and specific binding was defined as total binding minus nonspecific binding. The IC50 was calculated by weighted nonlinear least squares curve-fitting to the mass-action equation. [formula] • where Y is cpm bound T is cpm total binding without drug S is cpm specific binding without drug D is the concentration of drug • and K is the IC50 of the drug Weighting factors were calculated under the assumption that the standard deviation was proportional to the predicted value of Y. Nonspecific binding was treated as a very large (infinite) concentration of drug in the computer analysis.

| SMILES | IC50 |
| --- | --- |
| CSC[C@H]1O[C@@H](n2cnc3c(N[C@H](C)Cc4ccccc4)ncnc32)[C@H](O)[C@@H]1O [Example 7, (R)-N^6[Phenylisopropyl]-5'-deoxy-5'-thiomethyladenosine] | 6300 nM |
| CSC[C@H]1O[C@@H](n2cnc3c(N[C@@H](C)Cc4ccccc4)ncnc32)[C@H](O)[C@@H]1O [Example 8, (S)-N^6-[Phenylisopropyl]-5'-deoxy-5'-thiomethyladenosine] | 44000 nM |
| CSC[C@H]1O[C@@H](n2cnc3c(NC4CCCCC4)ncnc32)[C@H](O)[C@@H]1O [Example 9, N^6-[Cyclohexyl]-5'-deoxy-5'-thiomethyladenosine] | 7400 nM |
| CSC[C@H]1O[C@@H](n2cnc3c(NCC(c4ccccc4)c4ccccc4)ncnc32)[C@H](O)[C@@H]1O [Example 11, N^6-[2,2-Diphenyl]-5'-deoxy-5'-thiomethyladenosine] | 2000 nM |
| CSC[C@H]1O[C@@H](n2cnc3c(NC4CCc5ccccc54)ncnc32)[C@H](O)[C@@H]1O (stereo partly shown) [Example 12, N^6-[1-Indanyl]-5'-deoxy-5'-thiomethyladenosine] | 58200 nM |
| C[C@@H](Cc1ccccc1)Nc1ncnc2c1ncn2[C@@H]1O[C@H](CCl)[C@@H](O)[C@H]1O [Example 16, (S)-N^6-[Phenylisopropyl]-5'-deoxy-5'-chloroadenosine] | 7900 nM |
| O[C@@H]1[C@H](O)[C@@H](CCl)O[C@H]1n1cnc2c(NC3CCCCC3)ncnc21 [Example 17, N^6-[Cyclohexyl]-5' -deoxy-5' -chloro-adenosine] | 2700 nM |
| O[C@@H]1[C@H](O)[C@@H](CCl)O[C@H]1n1cnc2c(NC3CCCC3)ncnc21 [Example 18, N^6-[Cyclopentyl]-5'-deoxy-5'-chloroadenosine] | 2800 nM |

The compounds below were run on male Swiss-Webster mice (assay: Antiwrithing (AW) test, acetic acid induced writhing). Conditions: Mus musculus, ip; administered intraperitoneally to mice; read-out: ED50 (dose necessary to suppress writhing by 50% relative to vehicle controls).
Format: in vivo

| SMILES | ED50 |
| --- | --- |
| CSC[C@H]1O[C@@H](n2cnc3c(NC4CCc5ccccc54)ncnc32)[C@H](O)[C@@H]1O (stereo partly shown) [Example 12, N^6-[1-Indanyl]-5'-deoxy-5'-thiomethyladenosine] | 3 mg/kg |
